A short description of the experiment: Skeletal imaging with a scintillation camera after intravenous injection of the imaging agent. It counts as in vivo, human. The note with it: acid or its monosodium salt replaces AMDP in the Example I kit; compared with the Example I result. The protocol:
An imaging agent is prepared using this kit by adding about 5 ml of a pertechnetate-Tc99m physiological saline solution, with an activity of about 0.278 x 10^10 Bq (about 75 mCi), from a commercial technetium source. The vial is agitated until the kit components are dissolved. About 1 ml of the agent is slowly injected, over a period of about 30 seconds, into an adult human subject weighing about 75 kg.
Regarding `NCC(O)(P(=O)(O)O)P(=O)(O)O` [ethane-1-hydroxy-2-amino-1,1-diphosphonic acid], the “skeletal images, carrier used instead of AMDP in the kit of Example I” value (“skeletal images, carrier used instead” below) was “substantially similar results”.

In the case of `CN(C)C(P(=O)(O)O)P(=O)(O)O` [methane-N,N-dimethylaminodiphosphonic acid], the “skeletal images, carrier used instead” value is “substantially similar results”.

Turning to `CNC(P(=O)(O)O)P(=O)(O)O` [methane-N-methylaminodiphosphonic acid], the “skeletal images, carrier used instead” value is recorded as “substantially similar results”.

For the molecule `NC(O)(P(=O)(O)O)P(=O)(O)O` [methaneaminohydroxydiphosphonic acid], the “skeletal images, carrier used instead” value is recorded as “substantially similar results”.

As for `NCCC(O)(P(=O)(O)O)P(=O)(O)O` [propane-1-hydroxy-3-amino-1,1-diphosphonic acid], the “skeletal images, carrier used instead” value is “substantially similar results”.
